Results from ChEMBL document CHEMBL4385611, “Difluoromethylene at the γ-Lactam α-Position Improves 11-Deoxy-8-aza-PGE1 Series EP4 Receptor Binding and Activity: 11-Deoxy-10,10-difluoro-8-aza-PGE1 Analog (KMN-159) as a Potent EP4 Agonist” (J Med Chem, 2019).

Tests used:
[1] = molecular target: T1, Prostaglandin E2 receptor EP2 subtype (Homo sapiens, UniProt P43116); experiment: Agonist activity at human EP2 receptor expressed in HEK293T/17 cells assessed as increase in intracellular cAMP level incubated for 30 mins by ELISA; format: functional, cell-based
T1 sequence (P43116 whole entry): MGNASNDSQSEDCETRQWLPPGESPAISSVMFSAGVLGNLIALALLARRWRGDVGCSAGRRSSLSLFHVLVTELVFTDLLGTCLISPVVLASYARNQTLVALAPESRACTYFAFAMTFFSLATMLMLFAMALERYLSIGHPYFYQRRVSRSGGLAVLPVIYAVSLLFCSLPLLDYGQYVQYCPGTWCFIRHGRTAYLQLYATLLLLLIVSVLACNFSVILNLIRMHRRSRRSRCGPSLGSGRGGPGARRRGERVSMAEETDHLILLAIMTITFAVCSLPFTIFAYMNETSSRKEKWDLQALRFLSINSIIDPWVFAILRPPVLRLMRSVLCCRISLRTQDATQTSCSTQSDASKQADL

[2] = molecular target: T2, Prostaglandin E2 receptor EP4 subtype (Homo sapiens, UniProt P35408); experiment: Agonist activity at human EP4 receptor expressed in HEK293T/17 cells assessed as increase in GalphaS-mediated CREB activation measured after 6 to 24 hrs by SEAP reporter gene-based chemiluminescence assay; format: functional, cell-based
T2 sequence (P35408 whole entry): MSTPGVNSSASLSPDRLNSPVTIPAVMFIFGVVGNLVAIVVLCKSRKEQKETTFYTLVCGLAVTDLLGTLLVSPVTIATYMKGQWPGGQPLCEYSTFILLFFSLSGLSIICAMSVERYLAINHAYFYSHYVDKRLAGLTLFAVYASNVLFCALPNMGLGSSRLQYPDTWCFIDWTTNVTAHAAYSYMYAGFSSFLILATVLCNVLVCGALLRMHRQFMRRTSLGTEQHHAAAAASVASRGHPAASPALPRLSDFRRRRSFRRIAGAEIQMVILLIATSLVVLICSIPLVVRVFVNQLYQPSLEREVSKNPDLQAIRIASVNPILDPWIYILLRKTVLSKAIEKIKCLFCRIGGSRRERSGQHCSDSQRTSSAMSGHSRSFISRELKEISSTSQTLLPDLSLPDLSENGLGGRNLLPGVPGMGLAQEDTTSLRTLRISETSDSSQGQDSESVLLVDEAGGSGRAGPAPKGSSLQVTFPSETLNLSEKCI

[3] = molecular target: T1, Prostaglandin E2 receptor EP2 subtype; experiment: Agonist activity at human EP2 receptor expressed in HEK293T/17 cells assessed as increase in intracellular cAMP level at 10 uM incubated for 30 mins by ELISA relative to control; format: functional, cell-based
[4] = molecular target: T1, Prostaglandin E2 receptor EP2 subtype; experiment: Agonist activity at human EP2 receptor expressed in HEK293T/17 cells assessed as increase in GalphaS-mediated CREB activation measured after 6 to 24 hrs by SEAP reporter gene-based chemiluminescence assay; format: functional, cell-based
[5] = molecular target: T1, Prostaglandin E2 receptor EP2 subtype; experiment: Displacement of [3H]PGE2 from human recombinant EP2 receptor expressed in HEK293 cell membranes after 120 mins by liquid scintillation counting method
[6] = molecular target: T2, Prostaglandin E2 receptor EP4 subtype; experiment: Displacement of [3H]PGE2 from human recombinant EP4 receptor expressed in HEK293 cell membranes after 120 mins by liquid scintillation counting method
[7] = molecular target: T2, Prostaglandin E2 receptor EP4 subtype; experiment: Agonist activity at human EP4 receptor expressed in HEK293T/17 cells assessed as increase in intracellular cAMP level incubated for 30 mins by ELISA; format: functional, cell-based
[8] = molecular target: T3, Prostaglandin E2 receptor EP3 subtype (Homo sapiens, UniProt P43115); experiment: Displacement of [3H]PGE2 from human recombinant EP3 receptor expressed in HEK293 cell membranes after 120 mins by liquid scintillation counting method
T3 sequence (P43115 whole entry): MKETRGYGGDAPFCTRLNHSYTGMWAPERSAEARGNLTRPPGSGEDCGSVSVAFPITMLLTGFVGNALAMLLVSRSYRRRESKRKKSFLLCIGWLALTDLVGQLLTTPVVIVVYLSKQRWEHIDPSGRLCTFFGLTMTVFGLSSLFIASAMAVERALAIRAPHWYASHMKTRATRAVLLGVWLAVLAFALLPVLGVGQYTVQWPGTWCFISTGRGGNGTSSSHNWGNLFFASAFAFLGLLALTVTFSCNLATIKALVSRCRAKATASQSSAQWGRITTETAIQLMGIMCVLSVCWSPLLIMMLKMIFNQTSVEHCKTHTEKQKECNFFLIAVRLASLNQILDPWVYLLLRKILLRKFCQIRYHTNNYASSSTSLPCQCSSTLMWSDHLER

[9] = molecular target: T1, Prostaglandin E2 receptor EP2 subtype; experiment: Agonist activity at human EP2 receptor expressed in HEK293T/17 cells assessed as increase in GalphaS-mediated CREB activation at 10 uM measured after 6 to 24 hrs by SEAP reporter gene-based chemiluminescence assay relative to control; format: functional, cell-based

Compound	EC50 [1] [nM]	EC50 [2] [nM]	Activity [3] [%]	EC50 [4] [nM]	Ki [5] [nM]	Ki [6] [nM]	EC50 [7] [nM]	Ki [8] [nM]	Activity [9] [%]
CCCCC[C@H](O)/C=C/[C@H]1CC(F)(F)C(=O)N1CCCCCCC(=O)O	> 10000	0.021	< 50	2270	329	0.2	0.348	350	–
CCCCC[C@H](O)/C=C/[C@H]1CCC(=O)N1CCCCCCC(=O)O	> 10000	0.065	< 50	> 10000	1460	1.61	–	1170	< 50
COCc1cccc(C[C@H](O)/C=C/[C@H]2[C@H](O)CC(=O)[C@@H]2CCSCCCC(=O)O)c1	10000	0.01	< 50	610	–	0.396	–	–	–
